Measured values from ChEMBL document CHEMBL4814005, “Pragmatic recruitment of memantine as the capping group for the design of HDAC inhibitors: A preliminary attempt to unravel the enigma of glioblastoma” (Eur J Med Chem, 2021).
Calls of active or inactive are those of the source. No cut-off for these calls is given here.

How the values were obtained:
U-87 MG [1] = test: Antiproliferation activity against human U-87 MG cells assessed as growth inhibition measured after 1 hr by MTT assay; type: functional, cell-based, U-87MG ATCC
U-87 MG [2] = test: Antiproliferation activity against TMZ resistant human U-87 MG R-50 cells assessed as growth inhibition at 3 uM by MTT assay; type: functional, cell-based; details: U-87MG ATCC
Glioblastoma cell line [3] = test: Antiproliferation activity against TMZ resistant human glioblastoma cell P1S assessed as growth inhibition at 3 uM by MTT assay; type: functional
A 172 [4] = test: Downregulation of PCNA expression in human A 172 cells upto 10 uM measured after 24 hrs by Western blot analysis; type: functional, cell-based; details: dose microM <=10, time 24.0 hrs
A 172 [5] = test: Induction of cell cycle arrest in human A 172 cells assessed as accumulation at G2/M phase by propidium iodide staining based flow cytometric analysis; type: functional; details: dose microM <=10
A 172 [6] = test: Induction of cell cycle arrest in human A 172 cells assessed as accumulation at G0/G1 phase by propidium iodide staining based flow cytometric analysis; type: functional; details: dose microM <=10
A 172 [7] = test: Effect on cyclin B1 expression in human A 172 cells upto 10 uM after 24 hrs by Western blot analysis; type: functional, cell-based; details: dose microM <=10, time 24.0 hrs
A 172 [8] = test: Induction of cell cycle arrest in human A 172 cells assessed as increase in histone H3-S10 dephosphorylation upto 10 uM for 24 hrs by Western blot analysis; type: functional, cell-based; details: dose microM <=10, time 24.0 hrs
A 172 [9] = test: Induction of cell cycle arrest in human A 172 cells assessed as increase in histone alpha-tubulin-K40 acetylation upto 10 uM for 24 hrs by Western blot analysis; type: functional, cell-based; details: dose microM <=10, time 24.0 hrs
[10] = target: Cyclin-dependent kinase 1/cyclin B1 (Homo sapiens) (UniProt P06493+P14635); test: Inhibition of CDK1/Cyclin B interaction in human A 172 cells assessed as CDK1 acetylation at 3 uM for 24 hrs by Western blot analysis; type: cell-based
Sequence of Cyclin-dependent kinase 1/cyclin B1 (Homo sapiens) (P06493 whole entry, looked up): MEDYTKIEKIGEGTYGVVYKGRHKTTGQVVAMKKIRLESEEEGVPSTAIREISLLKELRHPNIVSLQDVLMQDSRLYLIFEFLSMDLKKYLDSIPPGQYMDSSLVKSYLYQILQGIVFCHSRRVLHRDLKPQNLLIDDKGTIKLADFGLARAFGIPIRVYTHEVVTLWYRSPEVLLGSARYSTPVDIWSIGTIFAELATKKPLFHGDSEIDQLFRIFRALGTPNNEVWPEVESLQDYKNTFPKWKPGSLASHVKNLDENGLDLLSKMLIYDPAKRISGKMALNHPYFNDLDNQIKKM
Sequence of Cyclin-dependent kinase 1/cyclin B1 (Homo sapiens) (P14635 whole entry, looked up): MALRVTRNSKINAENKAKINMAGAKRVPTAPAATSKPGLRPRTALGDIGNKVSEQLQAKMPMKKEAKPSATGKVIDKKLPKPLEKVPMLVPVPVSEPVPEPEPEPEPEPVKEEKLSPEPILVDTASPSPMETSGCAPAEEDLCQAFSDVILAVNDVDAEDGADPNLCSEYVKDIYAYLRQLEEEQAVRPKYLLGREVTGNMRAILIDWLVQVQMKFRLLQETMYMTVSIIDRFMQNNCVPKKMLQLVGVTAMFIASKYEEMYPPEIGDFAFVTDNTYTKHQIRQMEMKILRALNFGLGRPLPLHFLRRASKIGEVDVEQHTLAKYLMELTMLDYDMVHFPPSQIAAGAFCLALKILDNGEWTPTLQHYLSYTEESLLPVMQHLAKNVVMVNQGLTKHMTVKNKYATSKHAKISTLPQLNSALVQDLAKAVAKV

A 172 [11] = test: Induction of apoptosis in human A 172 cells assessed as upregulation of activated caspase 3 protein at 3 uM after 24 hrs by western blot analysis; type: functional, cell-based
A 172 [12] = test: Induction of apoptosis in human A 172 cells assessed as upregulation of cleaved PARP at 3 uM after 24 hrs by western blot analysis; type: functional, cell-based
A 172 [13] = test: Cytotoxicity against human A 172 cells assessed as reduction in cell viability upto 72 hrs by MTT assay; type: functional, cell-based; details: dose microM <=30, time hrs <=72
A 172 [14] = test: Cytotoxicity against TMZ-resistant human A 172 cells assessed as reduction in cell viability upto 72 hrs by MTT assay; type: functional, cell-based; details: dose microM <=30, time hrs <=72
U-87 MG [15] = test: Cytotoxicity against human U-87 MG cells assessed as reduction in cell viability upto 72 hrs by MTT assay; type: functional, cell-based; details: U-87MG ATCC, dose microM <=30, time hrs <=72
U-87 MG [16] = test: Cytotoxicity against TMZ-resistant human U-87 MG cells assessed as reduction in cell viability upto 72 hrs by MTT assay; type: functional, cell-based; details: U-87MG ATCC, dose microM <=30, time hrs <=72
Glioblastoma cell line [17] = test: Cytotoxicity against TMZ-resistant human glioblastoma cell P3 cells assessed as reduction in cell viability upto 72 hrs by MTT assay; type: functional, cell-based; details: dose microM <=30, time hrs <=72
Glioblastoma cell line [18] = test: Cytotoxicity against TMZ-resistant human glioblastoma cell P5 cells assessed as reduction in cell viability upto 72 hrs by MTT assay; type: functional, cell-based; details: dose microM <=30, time hrs <=72
Histone deacetylase 3 = Histone deacetylase 3 (Homo sapiens, UniProt O15379); test: Inhibition of human recombinant HDAC3 using [RHKK(Ac)] fluorogenic substrate
Sequence of Histone deacetylase 3 (O15379 whole entry): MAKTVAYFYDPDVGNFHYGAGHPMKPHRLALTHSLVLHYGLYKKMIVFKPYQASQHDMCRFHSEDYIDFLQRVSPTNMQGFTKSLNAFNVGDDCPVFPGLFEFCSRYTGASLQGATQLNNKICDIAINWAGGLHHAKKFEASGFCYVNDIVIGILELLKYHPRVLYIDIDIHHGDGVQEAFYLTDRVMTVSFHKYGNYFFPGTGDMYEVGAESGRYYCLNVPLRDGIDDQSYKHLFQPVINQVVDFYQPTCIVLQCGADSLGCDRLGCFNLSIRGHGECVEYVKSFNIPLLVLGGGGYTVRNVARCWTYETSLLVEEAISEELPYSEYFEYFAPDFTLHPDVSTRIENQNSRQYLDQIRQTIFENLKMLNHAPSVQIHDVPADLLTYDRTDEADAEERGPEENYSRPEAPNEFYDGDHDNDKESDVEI

A 172 [19] = test: Induction of cell cycle arrest in human A172 cells assessed as accumulation at G1/S phase measured by increase in cyclin E expression upto 10 uM after 24 hrs by Western blot analysis; type: functional, cell-based; details: dose microM <=10, time 24.0 hrs
A 172 [20] = test: Induction of cell cycle arrest in human A 172 cells assessed as sub-G1 population upto 10 uM after 2 days by flow cytometry/PI staining assay; type: functional, cell-based; details: dose microM <=10, time 2.0 day
A 172 [21] = test: Cytotoxicity against TMZ-resistant human A 172 cells assessed as reduction in cell viability upto 30 uM by MTT assay; type: functional, cell-based; details: dose microM <=30, time hrs <=72, TDE = time-dependent effect
U-87 MG [22] = test: Cytotoxicity against TMZ-resistant human U-87 MG cells assessed as reduction in cell viability upto 30 uM by MTT assay; type: functional, cell-based; details: U-87MG ATCC, dose microM <=30, time hrs <=72, TDE = time-dependent effect
Glioblastoma cell line [23] = test: Cytotoxicity against human glioblastoma cell P3 cells assessed as reduction in cell viability upto 30 uM by MTT assay; type: functional, cell-based; details: dose microM <=30, time hrs <=72, TDE = time-dependent effect
Glioblastoma cell line [24] = test: Cytotoxicity against TMZ-resistant human glioblastoma cell P3 cells assessed as reduction in cell viability upto 30 uM by MTT assay; type: functional, cell-based; details: dose microM <=30, time hrs <=72, TDE = time-dependent effect
Glioblastoma cell line [25] = test: Cytotoxicity against human glioblastoma cell P1S cells assessed as reduction in cell viability upto 30 uM by MTT assay; type: functional, cell-based; details: dose microM <=30, time hrs <=72, TDE = time-dependent effect

- IC50 (U-87 MG [1]): 2950 nM
- Activity [10]: Active
- IC50 (Histone deacetylase 3): 806 nM
SMILES: CC12CC3CC(C)(C1)CC(NCc1ccc(NC(=O)CCCCCCC(=O)NO)cc1)(C3)C2
- Activity (U-87 MG [2]): inactive
- Activity (Glioblastoma cell line [3]): inactive
- Activity (A 172 [4]): inactive
- Activity (A 172 [5]): Dose-Dependent Effect
- Activity (A 172 [6]): Dose-Dependent Effect
- Activity (A 172 [7]): inactive
- Activity (A 172 [8]): Active
- Activity (A 172 [9]): Active
- Activity (A 172 [11]): Active
- Activity (A 172 [12]): Active
- Activity (A 172 [13]): Dose-Dependent Effect
- Activity (A 172 [14]): Dose-Dependent Effect
- Activity (U-87 MG [15]): Dose-Dependent Effect
- Activity (U-87 MG [16]): Dose-Dependent Effect
- Activity (Glioblastoma cell line [17]): Dose-Dependent Effect
- Activity (Glioblastoma cell line [18]): Dose-Dependent Effect
- Activity (A 172 [19]): Active
- Activity (A 172 [20]): Active
- Activity (A 172 [21]): Tde
- Activity (U-87 MG [22]): Tde
- Activity (Glioblastoma cell line [23]): Tde
- Activity (Glioblastoma cell line [24]): Tde
- Activity (Glioblastoma cell line [25]): Tde
